# Laboratory results as given in patent US20030057401A1, “Inhibitor compositions” (priority 1999, published 2003).
# Tested on: sessile SRB colonies
# Test: Experiment 4: biocidal efficacy for planktonic and sessile bacteria, studs from Robins device, 3 hr contact
# Assay type: cell-based, Sulphate Reducing Bacteria (SRB)
# Conditions: if it can penetrate the glycocalyx
# Description: The purpose of killing planktonic SRB is to prevent the formation of sessile SRB colonies. A series of tests has been conducted in which viable sessile cultures have been treated with a range of biocides. Synthetic Seawater [table] Additional nutrients were added to water to encourage bacteria growth. Experiment 4 is a comparison of biocidal efficacy for planktonic and sessile bacteria. Viable SRB colonies are established on studs in a Robins device. The studs are removed, washed in sterile sea water and treated with solutions containing the test biocide. After exposures of 1, 3, 4, 8 or extended periods, coupons are rinsed, scraped and suspended in fresh synthetic sea water. Serial dilutions and ATP analyses are conducted on the samples to determine bacterial activity.
structure (smiles),measurement,value
O=CCCCC=O [glutaraldehyde],comparative biocidal efficacy on sessile SRB colonies,more effective biocide than quaternary amines
